Laboratory results published in US10519211B2, “Compounds as peptidic GLP1/glucagon/GIP receptor agonists” (SANOFI, priority 2016, dated 2019).
Numbered stars: 1 amine (or outer) side, 2 acyl side, 3 side chain; on linkers, the order of the positions; unused ones are H or OH. Square brackets hold non-standard residues; d marks the D form. Side chains are listed from the residue outwards. Peptide text beside a SMILES is read from it. * marks the point of attachment. γGlu = O=C(O)[C@H](CCC(=O)[*:2])N[*:1]; Palmitoyl = CCCCCCCCCCCCCCCC(=O)*; Aib = CC(C)(N)C(=O)O

What was measured:
[1] = Chemical stability assessment (UPLC-UV, relative purity loss); format: physicochemical; conditions: 1 mg/ml, 25 mM acetate buffer pH 4.5 with m-cresol (buffer system A)
Method in brief: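 Peptide at 1 mg/mL (purity-corrected) in 25 mM acetate pH 4.5 with methionine, m-cresol and glycerol, sterile-filtered, stored 28 days at 40° C. Purity measured by UPLC-UV as peptide peak area fraction at start and after storage; value is relative percent purity loss.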

[2] = Thioflavin T (ThT) assay for physical stability (fibrillation); format: physicochemical; conditions: 3 mg/ml, 100 mM acetate pH 4.5 with m-cresol, shaking at 37° C.
Method in brief: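 Peptide at 3 mg/ml with 100 μM ThT in 100 mM acetate pH 4.5 with m-cresol, stressed at 37° C by cycles of 10 s shaking at 960 rpm and 50 s rest. Fluorescence read every 20 minutes, eight replicates; lag time in hours.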

[3] = Dynamic light scattering (DLS), hydrodynamic radius as surrogate for interaction parameter kD; format: physicochemical; conditions: for Delta Rh [nm] = Rh5 − Rh1: DLS buffer system A pH 4.5; for Rh1 [nm] c= 1 mg/ml / Rh5 [nm] c = 5 mg/ml: hydrodynamic radius, DLS buffer system A pH 4.5, DLS method C, 25° C.
Method in brief: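 Rh and diffusion constant measured in triplicate at 1 and 5 mg/ml peptide in 25 mM acetate pH4.5 with methionine, m-cresol and glycerol, at 25°C, 830 nm, 158°. Rh5<Rh1 or D5>D1 taken as kD>0, indicating repulsive interactions.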

[4] = target: T1, human GIP receptor (hGIP-R) (Homo sapiens, UniProt P48546); assay: cAMP response (HTRF) of HEK-293 cells stably expressing human GIP receptor; format: cell-based; conditions: Table 8; cAMP formation
T1 construct: expressed in transfected cells; host or cells: HEK-293
T1 sequence (P48546 22-466): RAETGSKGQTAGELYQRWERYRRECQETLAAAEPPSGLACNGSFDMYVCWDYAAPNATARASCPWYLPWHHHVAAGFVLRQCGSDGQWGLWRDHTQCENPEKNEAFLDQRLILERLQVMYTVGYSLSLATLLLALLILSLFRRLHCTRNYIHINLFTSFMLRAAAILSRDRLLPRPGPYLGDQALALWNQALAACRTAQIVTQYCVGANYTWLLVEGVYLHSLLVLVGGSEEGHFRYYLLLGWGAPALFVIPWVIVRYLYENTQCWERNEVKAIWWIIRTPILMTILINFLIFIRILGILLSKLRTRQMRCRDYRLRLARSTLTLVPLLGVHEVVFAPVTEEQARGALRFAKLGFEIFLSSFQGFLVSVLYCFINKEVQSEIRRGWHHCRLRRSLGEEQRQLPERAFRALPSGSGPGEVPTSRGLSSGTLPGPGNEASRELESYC
Method: cAMP content of cells was determined using a kit from Cisbio Corp. (cat. no. 62AM4PEJ) based on HTRF (Homogenous Time Resolved Fluorescence). For preparation, cells were split into T175 culture flasks and grown overnight to near confluency in medium (DMEM/10% FBS). Medium was then removed and cells washed with PBS lacking calcium and magnesium, followed by proteinase treatment with accutase (Sigma-Aldrich cat. no. A6964). Detached cells were washed and resuspended in assay buffer (1×HBSS; 20 mM HEPES, 0.1% BSA, 2 mM IBMX) and cellular density determined. They were then diluted to 400000 cells/ml and 25 μl-aliquots dispensed into the wells of 96-well plates. For measurement, 25 μl of test compound in assay buffer was added to the wells, followed by incubation for 30 minutes at room temperature.
Potencies of peptidic compounds at the GLP-1, glucagon and GIP receptors were determined by exposing cells expressing human glucagon receptor (hGlucagon R), human GIP receptor (hGIP-R) or human GLP-1 receptor (hGLP-1 R) to the listed compounds at increasing concentrations and measuring the formed cAMP as described in Methods.

Chemical stability [relative purity loss 28 days 40° C.] (%) at pH 4.5 [1] [%]	Lag time before increase [2] [h]	Delta Rh [nm] = Rh5 − Rh1 [3] [nm]	Rh1 [nm] c= 1 mg/ml [3] [nm]	Rh5 [nm] c = 5 mg/ml [3] [nm]	EC50 [4] [pM]	Structure (SMILES)
7.4	>45	–	–	–	–	CCCCCCCCCCCCCCCC(=O)N[C@@H](CCC(=O)N[C@@H](CCC(=O)NCCCC[C@H](NC(=O)[C@H](CC(C)C)NC(=O)[C@H](CCCCN)NC(=O)[C@H](CO)NC(=O)[C@H](CC(C)C)NC(=O)[C@H](CC(=O)O)NC(=O)[C@H](CO)NC(=O)[C@@H](NC(=O)[C@H](Cc1ccccc1)NC(=O)[C@@H](NC(=O)CNC(=O)[C@H](CCC(N)=O)NC(=O)C(C)(C)NC(=O)[C@@H](N)Cc1c[nH]cn1)[C@@H](C)O)[C@@H](C)O)C(=O)N[C@@H](CCC(=O)O)C(=O)N[C@@H](CCC(=O)O)C(=O)N[C@@H](CCC(N)=O)C(=O)N[C@@H](CCCNC(=N)N)C(=O)N[C@@H](CCC(N)=O)C(=O)NC(C)(C)C(=O)N[C@@H](CCC(=O)O)C(=O)N[C@@H](Cc1ccccc1)C(=O)N[C@H](C(=O)N[C@@H](CCC(=O)O)C(=O)N[C@@H](Cc1c[nH]c2ccccc12)C(=O)N[C@@H](CC(C)C)C(=O)N[C@@H](CCCCN)C(=O)N[C@@H](C)C(=O)N[C@H](C)C(=O)NCC(=O)N1CCC[C@H]1C(=O)N1CCC[C@H]1C(=O)N[C@@H](CO)C(=O)NC(C)(C)C(=O)N[C@@H](CCCCN)C(=O)N1CCC[C@H]1C(=O)N1CCC[C@H]1C(=O)N1CCC[C@H]1C(=O)N[C@@H](CCCCN)C(N)=O)[C@@H](C)CC)C(=O)O)C(=O)O [SEQ ID NO: 10, H-Aib-Q-G-T-F-T-S-D-L-S-K-L-K[gGlu-gGlu-Palm]-E-E-Q-R-Q-Aib-E-F-I-E-W-L-K-A-dAla-G-P-P-S-Aib-K-P-P-P-K-NH2] (H-H[Aib]QGTFTSDLSKLK([γGlu-γGlu-Palmitoyl])EEQRQ[Aib]EFIEWLKA[dA]GPPS[Aib]KPPPK-NH2)
4.5	>45	−0.3	2.8	2.5	–	CCCCCCCCCCCCCCCC(=O)N[C@@H](CCC(=O)N[C@@H](CCC(=O)NCCCC[C@H](NC(=O)[C@H](CC(C)C)NC(=O)[C@H](CCCCN)NC(=O)[C@H](CO)NC(=O)[C@H](CC(C)C)NC(=O)[C@H](CC(=O)O)NC(=O)[C@H](CO)NC(=O)[C@@H](NC(=O)[C@H](Cc1ccccc1)NC(=O)[C@@H](NC(=O)CNC(=O)[C@H](CCC(N)=O)NC(=O)C(C)(C)NC(=O)[C@@H](N)Cc1c[nH]cn1)[C@@H](C)O)[C@@H](C)O)C(=O)N[C@@H](CCC(=O)O)C(=O)N[C@@H](CCCCN)C(=O)N[C@@H](CCC(N)=O)C(=O)N[C@@H](CCCNC(=N)N)C(=O)N[C@@H](CCC(N)=O)C(=O)NC(C)(C)C(=O)N[C@@H](CCC(=O)O)C(=O)N[C@@H](Cc1ccccc1)C(=O)N[C@H](C(=O)N[C@@H](CCC(=O)O)C(=O)N[C@@H](Cc1c[nH]c2ccccc12)C(=O)N[C@@H](CC(C)C)C(=O)N[C@@H](CCCCN)C(=O)N[C@@H](C)C(=O)N[C@H](C)C(=O)NCC(=O)N[C@@H](Cc1c[nH]cn1)C(=O)N1CCC[C@H]1C(=O)N[C@@H](CO)C(=O)NC(C)(C)C(=O)N[C@@H](CCCCN)C(=O)N1CCC[C@H]1C(=O)N1CCC[C@H]1C(=O)N1CCC[C@H]1C(=O)N[C@@H](CCCCN)C(N)=O)[C@@H](C)CC)C(=O)O)C(=O)O [SEQ ID NO: 13, H-Aib-Q-G-T-F-T-S-D-L-S-K-L-K[gGlu-gGlu-Palm]-E-K-Q-R-Q-Aib-E-F-I-E-W-L-K-A-dAla-G-H-P-S-Aib-K-P-P-P-K-NH2] (H-H[Aib]QGTFTSDLSKLK([γGlu-γGlu-Palmitoyl])EKQRQ[Aib]EFIEWLKA[dA]GHPS[Aib]KPPPK-NH2)
6.8	>45	−0.3	2.8	2.4	–	CCCCCCCCCCCCCCCC(=O)N[C@@H](CCC(=O)N[C@@H](CCC(=O)NCCCC[C@H](NC(=O)[C@H](CC(C)C)NC(=O)[C@H](CCCCN)NC(=O)[C@H](CO)NC(=O)[C@H](CC(C)C)NC(=O)[C@H](CC(=O)O)NC(=O)[C@H](CO)NC(=O)[C@@H](NC(=O)[C@H](Cc1ccccc1)NC(=O)[C@@H](NC(=O)CNC(=O)[C@H](CCC(N)=O)NC(=O)C(C)(C)NC(=O)[C@@H](N)Cc1c[nH]cn1)[C@@H](C)O)[C@@H](C)O)C(=O)N[C@@H](CCC(=O)O)C(=O)N[C@@H](CCCCN)C(=O)N[C@@H](CCC(N)=O)C(=O)N[C@@H](CCCNC(=N)N)C(=O)N[C@@H](CCC(N)=O)C(=O)NC(C)(C)C(=O)N[C@@H](CCC(=O)O)C(=O)N[C@@H](Cc1ccccc1)C(=O)N[C@H](C(=O)N[C@@H](CCC(=O)O)C(=O)N[C@@H](Cc1c[nH]c2ccccc12)C(=O)N[C@@H](CC(C)C)C(=O)N[C@@H](CCCCN)C(=O)N[C@@H](C)C(=O)N[C@H](C)C(=O)NCC(=O)N1CCC[C@H]1C(=O)N1CCC[C@H]1C(=O)N[C@@H](CO)C(=O)NC(C)(C)C(=O)N[C@@H](CCCCN)C(=O)N1CCC[C@H]1C(=O)N1CCC[C@H]1C(=O)N1CCC[C@H]1C(=O)N[C@@H](CCCCN)C(N)=O)[C@@H](C)CC)C(=O)O)C(=O)O [SEQ ID NO: 7, H-Aib-Q-G-T-F-T-S-D-L-S-K-L-K[gGlu-gGlu-Palm]-E-K-Q-R-Q-Aib-E-F-I-E-W-L-K-A-dAla-G-P-P-S-Aib-K-P-P-P-K-NH2] (H-H[Aib]QGTFTSDLSKLK([γGlu-γGlu-Palmitoyl])EKQRQ[Aib]EFIEWLKA[dA]GPPS[Aib]KPPPK-NH2)
8.7	>45	–	–	–	5.6	CCCCCCCCCCCCCCCC(=O)N[C@@H](CCC(=O)N[C@@H](CCC(=O)NCCCC[C@H](NC(=O)[C@H](CC(C)C)NC(=O)[C@H](CCCCN)NC(=O)[C@H](CO)NC(=O)[C@H](CC(C)C)NC(=O)[C@H](CC(=O)O)NC(=O)[C@H](CO)NC(=O)[C@@H](NC(=O)[C@H](Cc1ccccc1)NC(=O)[C@@H](NC(=O)CNC(=O)[C@H](CCC(N)=O)NC(=O)C(C)(C)NC(=O)[C@@H](N)Cc1c[nH]cn1)[C@@H](C)O)[C@@H](C)O)C(=O)N[C@@H](CCC(=O)O)C(=O)N[C@@H](CCC(=O)O)C(=O)N[C@@H](CCC(N)=O)C(=O)N[C@@H](CCCNC(=N)N)C(=O)N[C@@H](CCC(N)=O)C(=O)NC(C)(C)C(=O)N[C@@H](CCC(=O)O)C(=O)N[C@@H](Cc1ccccc1)C(=O)N[C@H](C(=O)N[C@@H](CCC(=O)O)C(=O)N[C@@H](Cc1c[nH]c2ccccc12)C(=O)N[C@@H](CC(C)C)C(=O)N[C@@H](CCCCN)C(=O)N[C@@H](C)C(=O)NCC(=O)NCC(=O)N1CCC[C@H]1C(=O)N1CCC[C@H]1C(=O)N[C@@H](CO)C(=O)NC(C)(C)C(=O)N[C@@H](CCCCN)C(=O)N1CCC[C@H]1C(=O)N1CCC[C@H]1C(=O)N1CCC[C@H]1C(=O)N[C@@H](CCCCN)C(N)=O)[C@@H](C)CC)C(=O)O)C(=O)O [SEQ ID NO: 9, H-Aib-Q-G-T-F-T-S-D-L-S-K-L-K[gGlu-gGlu-Palm]-E-E-Q-R-Q-Aib-E-F-I-E-W-L-K-A-G-G-P-P-S-Aib-K-P-P-P-K-NH2]
